Laboratory results reported in patent publication US4725601A, “Certain imidazo[1,2-a]pyridines useful in the treatment of ulcers” (Fujisawa Pharmaceutical Co., Ltd., priority 1985, dated 1988).

Assays:
stress ulcer = assay: Inhibition on stress ulcer; format: in vivo, Sprague-Dawley rats; conditions: stress ulcer (immobilization, water bath 22° C., seven hours), rat, oral; for Inhibition %: 32 mg/kg, ulcer area vs control
Method: (B) Inhibition on stress ulcer
Five Sprague-Dawley rats weighing about 200 g were used per group. Each animal was immobilized in a small cage and put in a water bath allowing to respire. The temperature of the water bath kept at 22° C. The test compound was administered orally just before the immobilization. Seven hours later, the animals were sacrificed and their stomachs were removed. The stomach was then fixed with 2% formalin. The area of ulcers was measured for each animal. The mean area (mm^2) in the medicated animals was compared with that in the control animals.

ethanol ulcer = assay: Inhibition on ethanol ulcer; format: in vivo, male Spraque-Dawley rats; conditions: rat, oral, 30 minutes before absolute ethanol; for Inhibition %: 32 mg/kg, ulcer area vs control
Method: (A) Inhibition on ethanol ulcer
Five male Spraque-Dawley rats, aged 7 weeks and weighing about 200 g, were used per group for the study on ethanol ulcer after the fast for 24 hours.
Test compound was suspended in 0.1% methylcellulose aqueous solution, and the suspension (5 ml/kg) was orally given to each rat.
The control group was given a vehicle, i.e. 0.1% methylcellulose aqueous solution (5 ml/kg), alone in the same way.
Absolute ethanol (5 ml/kg) was orally administered 30 minutes after dosing with test compound, and one hour later, the rats were sacrificed and their stomachs were removed. The area of ulcers of each rat was measured. The mean area […] in the medicated group was compared with that in the control group.

Compound | Inhibition % (stress ulcer) [%] | Inhibition % (ethanol ulcer) [%] | ED50 (stress ulcer; 7 h) [mg/kg] | ED50 (ethanol ulcer) [mg/kg]
C#CCc1c(C)nc2c(OCc3ccccc3C)cccn12 [Test Compound (3), 8-(2-Methylbenzyloxy)-3-(2-propynyl)-2-methylimidazo[1,2-a]pyridine] | 100 | 91.8 | – | –
C#CCOCc1c(C)nc2c(OCc3ccccc3Cl)cccn12 [Test Compound (2), 8-(2-Chlorobenzyloxy)-3-(2-propynyloxymethyl)-2-methylimidazo[1,2-a]pyridine] | 100 | 98.2 | – | –
C#CCOCc1c(C)nc2c(OCc3ccccc3C)cccn12 [Test Compound (1), 8-(2-Methylbenzyloxy)-3-(2-propynyloxymethyl)-2-methylimidazo[1,2-a]pyridine] | 100 | 94.4 | 0.15 | 1.1
